Laboratory results taken from patent publication US20220296595A1, “CDK INHIBITORS” (QILU REGOR THERAPEUTICS INC., priority 2019, published 2022).
Like-named read-outs stand apart in the source and are kept apart here.

Experiments:
[1] = test system: phosphorylation of Retinoblastoma Protein (pRb Ser807/811 or Ser780) in T47D cells; assay: Inhibition of phosphorylation of retinoblastoma protein (pRb) in T47D cell (ELISA); assay type: cell-based, human; settings: Homo sapiens, T47D, read-out: Phospho T47D Ser807 IC50, pRb Ser807 phosphorylation, T47D cells
Summary of the method: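 T47D cells in RPMI 1640 + 10% FBS, adhered overnight, then treated 24 h with 3-fold compound titrations (top concentration […]). Lysates assayed by sandwich ELISA for pRb Ser807/811 or Ser780 with HRP/TMB detection. IC50 from 4-parameter sigmoidal fit.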

[2] = molecular target: T1, CDK6/CyclinD3 (Homo sapiens, UniProt Q00534); assay: Assay for inhibition of CDK6/CyclinD3 (Caliper microfluidic kinase assay); assay type: biochemical
T1 construct: purchased Carna 04-107
Summary of the method: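 IC50s came from four-parameter dose-response fits of microfluidic substrate/product separation data. Reactions held 2 nM CDK6/CyclinD3, 300 μM ATP and 1 μM 5-FAM peptide FL-34 in pH 7.5 HEPES/MgCl2 buffer, ran 3 hours at room temperature, then were quenched with EDTA.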

[3] = molecular target: T2, CDK4/CyclinD1 (Homo sapiens, UniProt P11802); assay: Assay for inhibition of CDK4/CyclinD1 (Caliper microfluidic kinase assay); assay type: biochemical
T2 construct: purchased Thermofisher PR8064A
Summary of the method: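 IC50 was obtained by 4-parameter sigmoidal fitting after 1 nM CDK4/CyclinD1, 200 μM ATP and 1 μM FL-34 substrate reacted for 3 h at room temperature (pH 7.5 HEPES, 10 mM MgCl2). After EDTA quench, substrate and product were separated and detected on a Caliper microfluidic chip.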

[4] = molecular target: T3, CDK2/CyclinE1 (Homo sapiens, UniProt P24941); assay: Assay for inhibition of CDK2/CyclinE1 (Caliper microfluidic kinase assay); assay type: biochemical; settings: read-out: CDK2 IC50
T3 construct: purchased SignalChem C29-18G
Summary of the method: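 IC50 came from 4-parameter fits of substrate-to-product conversion, separated on a Caliper chip after an EDTA stop. Reactions ran 3 hours at room temperature with 100 μM ATP, 5 μM fluorescent FL-18 peptide and 5 nM enzyme in 100 mM HEPES pH 7.5, 10 mM MgCl2.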

[5] = test system: T47D breast cancer cells; assay: Anti-proliferation assay in T47D cell (Cyquant, day 6); assay type: cell-based, human; settings: Homo sapiens, T47D, anti-proliferation, T47D cells; read-out: T47D IC50
Summary of the method: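 A ten-point, 3-fold compound series (10 μM down to 0.51 nM) was applied to overnight-settled cells in 10% FBS RPMI 1640, and DNA content was read by CyQuant fluorescence 6 days later. An untreated plate read before dosing served as baseline for subtraction before IC50 fitting.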

T1 sequence (Q00534 whole entry): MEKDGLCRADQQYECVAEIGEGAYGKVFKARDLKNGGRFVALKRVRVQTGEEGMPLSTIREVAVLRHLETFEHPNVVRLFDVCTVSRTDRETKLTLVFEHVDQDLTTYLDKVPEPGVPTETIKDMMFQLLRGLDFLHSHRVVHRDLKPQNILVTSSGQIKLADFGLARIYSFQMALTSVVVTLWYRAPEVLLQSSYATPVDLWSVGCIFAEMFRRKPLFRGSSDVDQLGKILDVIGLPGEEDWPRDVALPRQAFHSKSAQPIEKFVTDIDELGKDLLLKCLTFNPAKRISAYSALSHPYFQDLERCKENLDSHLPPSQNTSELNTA
T1 sequence (P30281 whole entry partner): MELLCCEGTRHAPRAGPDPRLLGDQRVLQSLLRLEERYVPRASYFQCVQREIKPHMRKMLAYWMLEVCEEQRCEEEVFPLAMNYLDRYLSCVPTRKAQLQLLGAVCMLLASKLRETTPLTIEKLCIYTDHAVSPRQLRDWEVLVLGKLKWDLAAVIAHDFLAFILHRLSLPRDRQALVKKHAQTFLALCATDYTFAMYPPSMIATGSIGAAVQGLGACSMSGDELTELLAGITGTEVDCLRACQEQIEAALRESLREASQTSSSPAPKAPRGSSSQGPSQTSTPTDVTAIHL
T2 sequence (P11802 whole entry): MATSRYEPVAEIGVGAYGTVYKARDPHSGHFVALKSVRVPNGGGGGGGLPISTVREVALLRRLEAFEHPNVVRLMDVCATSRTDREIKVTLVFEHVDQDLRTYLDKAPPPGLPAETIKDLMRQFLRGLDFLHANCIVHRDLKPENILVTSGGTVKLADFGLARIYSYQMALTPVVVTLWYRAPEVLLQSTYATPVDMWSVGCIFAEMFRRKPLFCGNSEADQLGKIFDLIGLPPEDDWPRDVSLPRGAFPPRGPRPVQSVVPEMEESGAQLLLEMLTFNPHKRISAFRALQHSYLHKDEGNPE
T2 sequence (P24385 whole entry partner): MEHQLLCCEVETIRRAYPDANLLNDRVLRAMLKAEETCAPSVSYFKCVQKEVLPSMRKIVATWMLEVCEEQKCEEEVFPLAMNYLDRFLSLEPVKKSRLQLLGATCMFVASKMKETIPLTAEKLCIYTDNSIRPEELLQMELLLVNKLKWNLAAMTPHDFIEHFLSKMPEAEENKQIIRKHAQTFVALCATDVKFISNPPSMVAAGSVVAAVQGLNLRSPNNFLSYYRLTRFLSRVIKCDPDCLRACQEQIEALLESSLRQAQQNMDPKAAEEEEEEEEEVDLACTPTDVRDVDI

| SMILES | IC50 [1] | IC50 ([2]; CDK6/CyclinD3, 300 μM ATP) | IC50 ([3]; CDK4/CyclinD1, 200 μM ATP) | IC50 ([4]; CDK2/CyclinE1, 100 μM ATP) | IC50 [5] | IC50 ([2]; CDK6/CyclinD3) | IC50 ([3]; CDK4/CyclinD1) | IC50 ([4]; CDK2/CyclinE1) |
| --- | --- | --- | --- | --- | --- | --- | --- | --- |
| CNC1CCN(c2ccc(Nc3nccc(-c4ccn5ncc(C(C)C)c5c4)n3)nc2)C(=O)C1 (single isomer, unassigned) [Synthetic Example 205, 1-[6-[[4-(3-isopropylpyrazolo[1,5-a]pyridin-5-yl)pyrimidin-2-yl]amino]-3-pyridyl]-4-(methylamino)piperidin-2-one] | < 100 nM | < 10 nM | < 10 nM | < 10 nM | < 100 nM | – | – | – |
| CC(C)c1cnn2ccc(-c3nc(Nc4ccc(N5CCNCC5=O)cn4)ncc3F)cc12 [Synthetic Example 29] | < 100 nM | 10 to 100 nM | < 10 nM | 10 to 100 nM | < 100 nM | – | – | – |
| CCN1CC2CC1CN2c1ccc(Nc2nccc(-c3cc4c(ncn4C(C)C)c(OC)n3)n2)nc1 (stereo not shown) [compound 312] | < 100 nM | – | – | – | 100 to 500 nM | 10 to 100 nM | < 10 nM | > 1000 nM |
| CC(C)c1cnn2ccc(-c3ccnc(Nc4ccc(N5CCN(C6COC6)CC5=O)cn4)n3)cc12 [compound 234] | < 100 nM | 10 to 100 nM | < 10 nM | 10 to 100 nM | < 100 nM | – | – | – |
| CC(C)c1cnn2ccc(-c3ccnc(Nc4ccc(N5CCNC5=O)cn4)n3)cc12 [compound 163] | < 100 nM | 10 to 100 nM | < 10 nM | 10 to 100 nM | < 100 nM | – | – | – |
